Where “and” joins values, the source holds several entries; their conditions need not be identical. Identical values can stand only once. Toxic doses and inconclusive results are not listed.
Test system: L1210 leukemia ip in BDF1 mice, survival T/C
Assay: NCI In Vivo Anticancer Drug Screen. Data for tumor model L1210 Leukemia (intraperitoneal) in B6D2F1 (BDF1) mice
Conditions: endpoint: mean survival time, higher = longer survival
Procedure, shortened: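 Mice bearing the transplanted tumor received compound or vehicle. Survival of the treated group was divided by that of the vehicle-treated control group to give the ratio.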

[1] = dose: 12.5 mg/kg/injection, schedule: Q04DX002 (ip), vehicle: Klucel (hydroxypropylcellulose) (HPC)
[2] = dose: 25.0 mg/kg/injection, schedule: Q04DX002 (ip), vehicle: Klucel (hydroxypropylcellulose) (HPC)
[3] = dose: 100.0 mg/kg/injection, schedule: Q01DX009 (ip), vehicle: Klucel (hydroxypropylcellulose) (HPC)
[4] = dose: 100.0 mg/kg/injection, schedule: Q04DX003 (ip), vehicle: Klucel (hydroxypropylcellulose) (HPC)
[5] = dose: 200.0 mg/kg/injection, schedule: Q01DX009 (ip), vehicle: Klucel (hydroxypropylcellulose) (HPC)
[6] = dose: 200.0 mg/kg/injection, schedule: Q04DX003 (ip), vehicle: Klucel (hydroxypropylcellulose) (HPC)
[7] = dose: 400.0 mg/kg/injection, schedule: Q01DX009 (ip), vehicle: Klucel (hydroxypropylcellulose) (HPC)
[8] = dose: 400.0 mg/kg/injection, schedule: Q04DX003 (ip), vehicle: Klucel (hydroxypropylcellulose) (HPC)
[9] = dose: 100.0 mg/kg/injection, schedule: Q04DX002 (ip), vehicle: Klucel (hydroxypropylcellulose) (HPC)
[10] = dose: 200.0 mg/kg/injection, schedule: Q04DX002 (ip), vehicle: Klucel (hydroxypropylcellulose) (HPC)

Compound: CC1(C)C(=O)N(Cl)C(=O)N1Cl
- T/C (dose: 3.12 mg/kg/injection, schedule: Q01DX009 (ip), vehicle: Klucel (hydroxypropylcellulose) (HPC)): 90 % of control
- T/C (dose: 3.13 mg/kg/injection, schedule: Q01DX001 (ip), vehicle: saline sonified): 90 % of control
- T/C (dose: 3.13 mg/kg/injection, schedule: Q01DX009 (ip), vehicle: saline): 99 % of control
- T/C (dose: 6.25 mg/kg/injection, schedule: Q01DX001 (ip), vehicle: saline sonified): 97 % of control
- T/C (dose: 6.25 mg/kg/injection, schedule: Q01DX009 (ip), vehicle: Klucel (hydroxypropylcellulose) (HPC)): 90 % of control
- T/C (dose: 6.25 mg/kg/injection, schedule: Q01DX009 (ip), vehicle: saline): 95 % of control
- T/C (dose: 12.5 mg/kg/injection, schedule: Q01DX001 (ip), vehicle: saline sonified): 95 % of control
- T/C (dose: 12.5 mg/kg/injection, schedule: Q01DX009 (ip), vehicle: saline): 99 % of control
- T/C [1]: 97 % of control
- T/C (dose: 25.0 mg/kg/injection, schedule: Q01DX009 (ip), vehicle: Klucel (hydroxypropylcellulose) (HPC)): 91 % of control
- T/C [2]: 94 % of control

Compound: Cn1c(=O)c2ccccc2c2ccccc21
- T/C [3]: 99 % of control
- T/C [4]: 100 % of control
- T/C [5]: 97 % of control
- T/C [6]: 100 % of control
- T/C [7]: 100 % of control
- T/C [8]: 105 % of control

Compound: Cc1ccc(S(=O)(=O)Nc2cc(Cl)c(I)c(Cl)c2)cc1
- T/C [3]: 96 % of control
- T/C [5]: 102 % of control
- T/C [7]: 100 % of control

Compound: O=C(Nc1cccc(Cl)c1)Oc1ccc(C2CCCCC2)cc1
- T/C [9]: 104 % of control
- T/C [10]: 99 % of control
- T/C (dose: 400.0 mg/kg/injection, schedule: Q04DX002 (ip), vehicle: Klucel (hydroxypropylcellulose) (HPC)): 101 % of control

Compound: Cc1ccc(CC#N)c(-c2c(CC#N)ccc(C)c2C)c1C
- T/C (dose: 100.0 mg/kg/injection, schedule: Q04DX002 (ip), vehicle: gum acacia): 87 % of control
- T/C (dose: 200.0 mg/kg/injection, schedule: Q04DX002 (ip), vehicle: gum acacia): 93 % of control
- T/C (dose: 400.0 mg/kg/injection, schedule: Q04DX002 (ip), vehicle: gum acacia): 93 % of control

Compound: CCCCS(=O)c1nc2ccccc2s1 (stereo not given)
- T/C (dose: 100.0 mg/kg/injection, schedule: Q04DX002 (ip), vehicle: other): 88 % of control
- T/C (dose: 200.0 mg/kg/injection, schedule: Q04DX002 (ip), vehicle: other): 91 % of control

Compound: O=C(N/N=C/c1ccccc1)c1ccc(Cl)cc1
- T/C [4]: 97 % of control
- T/C [6]: 100 % of control
- T/C [8]: 90 % of control

Compound: COC1OC2COc3ccccc3OC2C2C1N2C(=N)N[N+](=O)[O-] (stereo not given)
- T/C (dose: 40.0 mg/kg/injection, schedule: Q04DX002 (ip), vehicle: saline): 102 % of control
- T/C (dose: 160.0 mg/kg/injection, schedule: Q04DX002 (ip), vehicle: saline): 102 % of control

Compound: CC([NH-])C[NH-].[Cl][Pt+2][Cl] (stereo not given)
- T/C (dose: 0.31 mg/kg/injection, schedule: Q01DX009 (ip), vehicle: saline): 108 % of control
- T/C (dose: 0.62 mg/kg/injection, schedule: Q01DX009 (ip), vehicle: saline): 116 % of control and 119 % of control
- T/C (dose: 1.1 mg/kg/injection, schedule: Q01DX009 (ip), vehicle: saline): 111 % of control
- T/C (dose: 1.25 mg/kg/injection, schedule: Q01DX009 (ip), vehicle: saline): 122 % of control
- T/C (dose: 1.65 mg/kg/injection, schedule: Q01DX009 (ip), vehicle: saline): 116 % of control
- T/C (dose: 3.75 mg/kg/injection, schedule: Q01DX009 (ip), vehicle: saline): 173 % of control
- T/C (dose: 5.0 mg/kg/injection, schedule: Q01DX009 (ip), vehicle: saline): 93 % of control and 108 % of control
- T/C (dose: 6.25 mg/kg/injection, schedule: Q04DX002 (ip), vehicle: Klucel (hydroxypropylcellulose) (HPC)): 112 % of control
- T/C [1]: 112 % of control
- T/C [2]: 104 % of control

Compound: O=P(CCl)(CCCl)CCCl
- T/C (dose: 50.0 mg/kg/injection, schedule: Q04DX003 (ip), vehicle: saline): 101 % of control
- T/C (dose: 100.0 mg/kg/injection, schedule: Q04DX003 (ip), vehicle: saline): 103 % of control
- T/C (dose: 200.0 mg/kg/injection, schedule: Q04DX003 (ip), vehicle: saline): 103 % of control
- T/C (dose: 400.0 mg/kg/injection, schedule: Q04DX003 (ip), vehicle: saline): 89 % of control

Compound: O=C1C=CC(=O)N1CCCCCCCCCCN1C(=O)C=CC1=O
- T/C (dose: 1.0 mg/kg/injection, schedule: Q01DX Z (ip), vehicle: methylcellulose (MC)): 94 % of control
- T/C (dose: 1.4 mg/kg/injection, schedule: Q01DX Z (ip), vehicle: methylcellulose (MC)): 96 % of control
- T/C (dose: 2.2 mg/kg/injection, schedule: Q01DX Z (ip), vehicle: methylcellulose (MC)): 90 % of control

Compound: CC1=CCCC(C)C12CCC(C(C)(C)O)C2 (stereo not given)
- T/C (dose: 50.0 mg/kg/injection, schedule: Q01DX009 (ip), vehicle: other): 104 % of control
- T/C (dose: 100.0 mg/kg/injection, schedule: Q01DX009 (ip), vehicle: other): 98 % of control
- T/C (dose: 100.0 mg/kg/injection, schedule: Q04DX003 (ip), vehicle: saline sonified): 103 % of control
- T/C (dose: 200.0 mg/kg/injection, schedule: Q01DX009 (ip), vehicle: other): 100 % of control
- T/C (dose: 200.0 mg/kg/injection, schedule: Q04DX003 (ip), vehicle: saline sonified): 107 % of control

Compound: O=C(O)C[CH2][Ge](=[O])[O][Ge](=[O])[CH2]CC(=O)O
- T/C (dose: 100.0 mg/kg/injection, schedule: Q04DX002 (ip), vehicle: saline): 100 % of control
- T/C (dose: 200.0 mg/kg/injection, schedule: Q04DX002 (ip), vehicle: saline): 103 % of control
- T/C (dose: 400.0 mg/kg/injection, schedule: Q04DX002 (ip), vehicle: saline): 103 % of control

Compound: C=CCN(CC=C)/N=N/c1nc[nH]c1C(N)=O
- T/C (dose: 37.5 mg/kg/injection, schedule: Q01DX009 (ip), vehicle: saline with Tween-80): 104 % of control
- T/C (dose: 75.0 mg/kg/injection, schedule: Q01DX009 (ip), vehicle: saline with Tween-80): 100 % of control
- T/C (dose: 150.0 mg/kg/injection, schedule: Q01DX009 (ip), vehicle: saline with Tween-80): 98 % of control

Compound: CC(=O)OC1CCCCC1C (stereo not given)
- T/C (dose: 100.0 mg/kg/injection, schedule: Q01DX001 (ip), vehicle: saline): 102 % of control
- T/C (dose: 200.0 mg/kg/injection, schedule: Q01DX001 (ip), vehicle: saline): 94 % of control
- T/C (dose: 400.0 mg/kg/injection, schedule: Q01DX001 (ip), vehicle: saline): 91 % of control

Compound: CCC1C(=O)OC2(CO)C(=O)N(C)CCC12 (stereo not given)
- T/C (dose: 15.6 mg/kg/injection, schedule: Q01DX001 (ip), vehicle: saline): 103 % of control
- T/C (dose: 31.3 mg/kg/injection, schedule: Q01DX001 (ip), vehicle: saline): 103 % of control
- T/C (dose: 62.5 mg/kg/injection, schedule: Q01DX001 (ip), vehicle: saline): 91 % of control
- T/C (dose: 125.0 mg/kg/injection, schedule: Q01DX001 (ip), vehicle: saline): 94 % of control

Compound: NNC(=O)CNc1ccc(F)cc1F
- T/C [9]: 101 % of control
- T/C [10]: 114 % of control

Compound: Cc1ccc(S(=O)(=O)N(C)c2cc(Cl)c(C#N)cc2Cl)cc1
- T/C [4]: 97 % of control
- T/C [6]: 97 % of control
- T/C [8]: 100 % of control

Compound: COc1ccc(S(=O)(=O)NCCC#N)cc1NC(C)=O
- T/C (dose: 100.0 mg/kg/injection, schedule: Q01DX001 (ip), vehicle: Klucel (hydroxypropylcellulose) (HPC)): 95 % of control
- T/C (dose: 100.0 mg/kg/injection, schedule: Q01DX009 (ip), vehicle: saline sonified): 96 % of control
- T/C (dose: 200.0 mg/kg/injection, schedule: Q01DX001 (ip), vehicle: Klucel (hydroxypropylcellulose) (HPC)): 97 % of control
- T/C (dose: 200.0 mg/kg/injection, schedule: Q01DX009 (ip), vehicle: saline sonified): 96 % of control
- T/C (dose: 400.0 mg/kg/injection, schedule: Q01DX001 (ip), vehicle: Klucel (hydroxypropylcellulose) (HPC)): 97 % of control
- T/C (dose: 400.0 mg/kg/injection, schedule: Q01DX009 (ip), vehicle: saline sonified): 107 % of control

Compound: C=CCN1C(=O)C=CC1=O
- T/C (dose: 3.0 mg/kg/injection, schedule: Q04DX002 (ip), vehicle: Klucel (hydroxypropylcellulose) (HPC)): 108 % of control
- T/C (dose: 6.0 mg/kg/injection, schedule: Q04DX002 (ip), vehicle: Klucel (hydroxypropylcellulose) (HPC)): 93 % of control

Compound: S=C1SC2CCCCC2S1 (stereo not given)
- T/C [2]: 100 % of control
- T/C (dose: 50.0 mg/kg/injection, schedule: Q04DX002 (ip), vehicle: Klucel (hydroxypropylcellulose) (HPC)): 106 % of control
- T/C [9]: 95 % of control
- T/C [4]: 103 % of control
- T/C [6]: 94 % of control
- T/C [8]: 103 % of control

Compound: CCOC(=O)/C(=C\c1ccccc1)C(C)=O
- T/C [4]: 101 % of control
- T/C [6]: 92 % of control
- T/C [8]: 104 % of control
